Results on 12 molecules are retold here after patent US20260242419A1, “A CYCLIC PEPTIDE FOR TRAPPING INTERLEUKIN-1 BETA” (Merck Sharp & Dohme LLC, priority 2023, published 2026).

The test deals with T1, IL-1β (Homo sapiens, UniProt P01584).
T1 construct: purchased BioLegend 579404
Put plainly: IL-6 assay in MRC5 cells: inhibition of IL-1β induced IL-6 secretion (AlphaLISA). The test is classed as cell-based. The conditions noted are these: inhibition of IL-1β induced IL-6 secretion in MRC5 cells; read-out: MRC5 IC50. An outline of the steps: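 Compound was pre-incubated 1 h at ambient temperature with recombinant human IL-1β at 2λ EC80 before adding human lung fibroblast MRC5 cells (3000/well) in EMEM with 0.025% BSA. After overnight culture at 37 °C, 5% CO2, secreted IL-6 in conditioned medium was measured by AlphaLISA; IC50 from 4-parameter logistic fits.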
For orientation: In Alpha technology, singlet oxygen from a donor bead excites a nearby acceptor bead.

Structures are written as SMILES. Non-standard residues stand in square brackets, D forms with d. Residues, ends and D or L forms follow the SMILES beside them. dPro(4R-(4-pyridylmethyl)) = O=C(O)[C@H]1C[C@@H](Cc2ccncc2)CN1; Trp(βS-Me,4-F) = C[C@@H](c1c[nH]c2cccc(F)c12)[C@H](N)C(=O)O; Bip(4'-COOH) = N[C@@H](Cc1ccc(-c2ccc(C(=O)O)cc2)cc1)C(=O)O; Ala(1-bicyclo(1.1.1)pentyl) = N[C@@H](CC12CC(C1)C2)C(=O)O; Ala(pyrimidin-5-yl) = N[C@@H](Cc1cncnc1)C(=O)O; Phe(4-COOH) = N[C@@H](Cc1ccc(C(=O)O)cc1)C(=O)O; Pro(cis-4-F) = O=C(O)[C@@H]1C[C@H](F)CN1; Ala(4-THP) = N[C@@H](CC1CCOCC1)C(=O)O; cisHyp = O=C(O)[C@@H]1C[C@H](O)CN1; 4Pal = N[C@@H](Cc1ccncc1)C(=O)O; aThr = C[C@H](O)[C@H](N)C(=O)O; αMeD = C[C@](N)(CC(=O)O)C(=O)O; d(αMeS) = C[C@@](N)(CO)C(=O)O; Dab = NCC[C@H](N)C(=O)O; Aib = CC(C)(N)C(=O)O; Sar = CNCC(=O)O

T1 sequence (P01584 117-269): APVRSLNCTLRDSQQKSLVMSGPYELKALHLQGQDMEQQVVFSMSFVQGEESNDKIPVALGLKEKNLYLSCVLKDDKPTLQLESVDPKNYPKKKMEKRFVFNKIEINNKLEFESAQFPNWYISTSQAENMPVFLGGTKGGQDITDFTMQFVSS

On to `C[C@H](O)[C@@H]1NC(=O)[C@](C)(CC(=O)O)NC(=O)[C@H](Cc2c[nH]c3ccccc23)NC(=O)[C@H](CO)NC(=O)C(C)(C)NC(=O)[C@H]([C@@H](C)c2c[nH]c3cccc(F)c23)NC(=O)[C@@H]2C[C@H](F)CN2C(=O)CNC(=O)[C@H](Cc2ccc(C(=O)O)cc2)NC(=O)[C@H](CC23CC(C2)C3)NC(=O)[C@H](Cc2ccc(-c3ccc(C(=O)O)cc3)cc2)NC(=O)[C@H]2C[C@@H](Cc3ccncc3)CN2C(=O)CNC(=O)[C@H](CCN)NC(=O)[C@H](CCC(N)=O)NC1=O` [Example 202] (cyclo([Bip(4'-COOH)][Ala(1-bicyclo(1.1.1)pentyl)][Phe(4-COOH)]G[Pro(cis-4-F)][Trp(βS-Me,4-F)][Aib]SW[αMeD][aThr]Q[Dab]G[dPro(4R-(4-pyridylmethyl))])), for which the IC50 (commonly the concentration needed to halve the response being measured) was 0.013 nM. In the case of `CC(C)[C@@H]1NC(=O)[C@](C)(CC(=O)O)NC(=O)[C@H](Cc2c[nH]c3ccccc23)NC(=O)[C@H](CO)NC(=O)C(C)(C)NC(=O)[C@H]([C@@H](C)c2c[nH]c3cccc(F)c23)NC(=O)[C@@H]2C[C@H](F)CN2C(=O)CNC(=O)[C@H](Cc2ccc(C(=O)O)cc2)NC(=O)[C@H](CC23CC(C2)C3)NC(=O)[C@H](Cc2ccc(-c3ccc(C(=O)O)cc3)cc2)NC(=O)[C@H]2C[C@@H](Cc3ccncc3)CN2C(=O)CNC(=O)[C@H](CCN)NC(=O)[C@H](CCC(N)=O)NC1=O` [Example 203] (cyclo([Bip(4'-COOH)][Ala(1-bicyclo(1.1.1)pentyl)][Phe(4-COOH)]G[Pro(cis-4-F)][Trp(βS-Me,4-F)][Aib]SW[αMeD]VQ[Dab]G[dPro(4R-(4-pyridylmethyl))])), the IC50 was found to be 0.016 nM. For `C[C@@H](c1c[nH]c2cccc(F)c12)[C@@H]1NC(=O)[C@@H]2C[C@H](F)CN2C(=O)CNC(=O)[C@H](Cc2ccc(C(=O)O)cc2)NC(=O)[C@H](CC23CC(C2)C3)NC(=O)[C@H](Cc2ccc(-c3ccc(C(=O)O)cc3)cc2)NC(=O)[C@H]2C[C@@H](Cc3ccncc3)CN2C(=O)CNC(=O)[C@H](CCN)NC(=O)[C@H](CCC(N)=O)NC(=O)[C@H](CC2CCOCC2)NC(=O)[C@@](C)(CO)NC(=O)[C@H](Cc2c[nH]c3ccccc23)NC(=O)[C@H](CO)NC(=O)C(C)(C)NC1=O` [Example 204] (cyclo([Bip(4'-COOH)][Ala(1-bicyclo(1.1.1)pentyl)][Phe(4-COOH)]G[Pro(cis-4-F)][Trp(βS-Me,4-F)][Aib]SW[d(αMeS)][Ala(4-THP)]Q[Dab]G[dPro(4R-(4-pyridylmethyl))])) the value was 0.017 nM; for `C[C@@H](c1c[nH]c2cccc(F)c12)[C@@H]1NC(=O)[C@@H]2C[C@H](F)CN2C(=O)CNC(=O)[C@H](Cc2ccc(C(=O)O)cc2)NC(=O)[C@H](Cc2ccncc2)NC(=O)[C@H](Cc2ccc(-c3ccc(C(=O)O)cc3)cc2)NC(=O)[C@H]2C[C@@H](Cc3ccncc3)CN2C(=O)CN(C)C(=O)[C@H](CCN)NC(=O)[C@H](CCC(N)=O)NC(=O)[C@H](Cc2cncnc2)NC(=O)C(C)(C)NC(=O)[C@H](Cc2c[nH]c3ccccc23)NC(=O)[C@H](CO)NC(=O)C(C)(C)NC1=O` [Example 205] (cyclo([Bip(4'-COOH)][4Pal][Phe(4-COOH)]G[Pro(cis-4-F)][Trp(βS-Me,4-F)][Aib]SW[Aib][Ala(pyrimidin-5-yl)]Q[Dab][Sar][dPro(4R-(4-pyridylmethyl))])), 0.028 nM. As for `C[C@@H](c1c[nH]c2cccc(F)c12)[C@@H]1NC(=O)[C@@H]2C[C@H](F)CN2C(=O)CNC(=O)[C@H](Cc2ccc(C(=O)O)cc2)NC(=O)[C@H](Cc2ccncc2)NC(=O)[C@H](Cc2ccc(-c3ccc(C(=O)O)cc3)cc2)NC(=O)[C@H]2C[C@@H](Cc3ccncc3)CN2C(=O)CN(C)C(=O)[C@H](CCN)NC(=O)[C@H](CCC(N)=O)NC(=O)[C@H](Cc2cncnc2)NC(=O)[C@@](C)(CO)NC(=O)[C@H](Cc2c[nH]c3ccccc23)NC(=O)[C@H](CO)NC(=O)C(C)(C)NC1=O` [Example 206] (cyclo([Bip(4'-COOH)][4Pal][Phe(4-COOH)]G[Pro(cis-4-F)][Trp(βS-Me,4-F)][Aib]SW[d(αMeS)][Ala(pyrimidin-5-yl)]Q[Dab][Sar][dPro(4R-(4-pyridylmethyl))])), the concentration for half-maximal inhibition (IC50) came to 0.022 nM. In the case of `C[C@@H](c1c[nH]c2cccc(F)c12)[C@@H]1NC(=O)[C@@H]2C[C@H](O)CN2C(=O)CNC(=O)[C@H](Cc2ccc(C(=O)O)cc2)NC(=O)[C@H](Cc2ccncc2)NC(=O)[C@H](Cc2ccc(-c3ccc(C(=O)O)cc3)cc2)NC(=O)[C@H]2C[C@@H](Cc3ccncc3)CN2C(=O)CN(C)C(=O)[C@H](CCN)NC(=O)[C@H](CCC(N)=O)NC(=O)[C@H](CC2CCOCC2)NC(=O)[C@@](C)(CO)NC(=O)[C@H](Cc2c[nH]c3ccccc23)NC(=O)[C@H](CO)NC(=O)C(C)(C)NC1=O` [Example 207] (cyclo([Bip(4'-COOH)][4Pal][Phe(4-COOH)]G[cisHyp][Trp(βS-Me,4-F)][Aib]SW[d(αMeS)][Ala(4-THP)]Q[Dab][Sar][dPro(4R-(4-pyridylmethyl))])), the IC50 stood at 0.044 nM. For `C[C@@H](c1c[nH]c2cccc(F)c12)[C@@H]1NC(=O)[C@@H]2C[C@H](F)CN2C(=O)CNC(=O)[C@H](Cc2ccc(C(=O)O)cc2)NC(=O)[C@H](Cc2ccncc2)NC(=O)[C@H](Cc2ccc(-c3ccc(C(=O)O)cc3)cc2)NC(=O)[C@H]2C[C@@H](Cc3ccncc3)CN2C(=O)CN(C)C(=O)[C@H](CCN)NC(=O)[C@H](CCC(N)=O)NC(=O)[C@H](CC2CCOCC2)NC(=O)[C@](C)(CC(=O)O)NC(=O)[C@H](Cc2c[nH]c3ccccc23)NC(=O)[C@H](CO)NC(=O)C(C)(C)NC1=O` [Example 208] (cyclo([Bip(4'-COOH)][4Pal][Phe(4-COOH)]G[Pro(cis-4-F)][Trp(βS-Me,4-F)][Aib]SW[αMeD][Ala(4-THP)]Q[Dab][Sar][dPro(4R-(4-pyridylmethyl))])) the value was 0.015 nM; for `C[C@@H](c1c[nH]c2cccc(F)c12)[C@@H]1NC(=O)[C@@H]2C[C@H](O)CN2C(=O)CNC(=O)[C@H](Cc2ccc(C(=O)O)cc2)NC(=O)[C@H](Cc2ccncc2)NC(=O)[C@H](Cc2ccc(-c3ccc(C(=O)O)cc3)cc2)NC(=O)[C@H]2C[C@@H](Cc3ccncc3)CN2C(=O)CN(C)C(=O)[C@H](CCN)NC(=O)[C@H](CCC(N)=O)NC(=O)[C@H](Cc2cncnc2)NC(=O)[C@](C)(CC(=O)O)NC(=O)[C@H](Cc2c[nH]c3ccccc23)NC(=O)[C@H](CO)NC(=O)C(C)(C)NC1=O` [Example 209] (cyclo([Bip(4'-COOH)][4Pal][Phe(4-COOH)]G[cisHyp][Trp(βS-Me,4-F)][Aib]SW[αMeD][Ala(pyrimidin-5-yl)]Q[Dab][Sar][dPro(4R-(4-pyridylmethyl))])), 0.034 nM; for `C[C@@H](c1c[nH]c2cccc(F)c12)[C@@H]1NC(=O)[C@@H]2C[C@H](O)CN2C(=O)CNC(=O)[C@H](Cc2ccc(C(=O)O)cc2)NC(=O)[C@H](Cc2ccncc2)NC(=O)[C@H](Cc2ccc(-c3ccc(C(=O)O)cc3)cc2)NC(=O)[C@H]2C[C@@H](Cc3ccncc3)CN2C(=O)CN(C)C(=O)[C@H](CCN)NC(=O)[C@H](CCC(N)=O)NC(=O)[C@H](CC2CCOCC2)NC(=O)[C@](C)(CC(=O)O)NC(=O)[C@H](Cc2c[nH]c3ccccc23)NC(=O)[C@H](CO)NC(=O)C(C)(C)NC1=O` [Example 210] (cyclo([Bip(4'-COOH)][4Pal][Phe(4-COOH)]G[cisHyp][Trp(βS-Me,4-F)][Aib]SW[αMeD][Ala(4-THP)]Q[Dab][Sar][dPro(4R-(4-pyridylmethyl))])), 0.029 nM.

Regarding `C[C@@H](c1c[nH]c2cccc(F)c12)[C@@H]1NC(=O)[C@@H]2C[C@H](F)CN2C(=O)CNC(=O)[C@H](Cc2ccc(C(=O)O)cc2)NC(=O)[C@H](Cc2ccncc2)NC(=O)[C@H](Cc2ccc(-c3ccc(C(=O)O)cc3)cc2)NC(=O)[C@H]2C[C@@H](Cc3ccncc3)CN2C(=O)CNC(=O)[C@H](CCN)NC(=O)[C@H](CCC(N)=O)NC(=O)[C@H](CC2CCOCC2)NC(=O)C(C)(C)NC(=O)[C@H](Cc2c[nH]c3ccccc23)NC(=O)[C@H](CO)NC(=O)C(C)(C)NC1=O` [Example 211] (cyclo([Bip(4'-COOH)][4Pal][Phe(4-COOH)]G[Pro(cis-4-F)][Trp(βS-Me,4-F)][Aib]SW[Aib][Ala(4-THP)]Q[Dab]G[dPro(4R-(4-pyridylmethyl))])), the IC50 was 0.019 nM. The result for `C[C@@H](c1c[nH]c2cccc(F)c12)[C@@H]1NC(=O)[C@@H]2C[C@H](O)CN2C(=O)CNC(=O)[C@H](Cc2ccc(C(=O)O)cc2)NC(=O)[C@H](Cc2ccncc2)NC(=O)[C@H](Cc2ccc(-c3ccc(C(=O)O)cc3)cc2)NC(=O)[C@H]2C[C@@H](Cc3ccncc3)CN2C(=O)CNC(=O)[C@H](CCN)NC(=O)[C@H](CCC(N)=O)NC(=O)[C@H](CC2CCOCC2)NC(=O)C(C)(C)NC(=O)[C@H](Cc2c[nH]c3ccccc23)NC(=O)[C@H](CO)NC(=O)C(C)(C)NC1=O` [Example 212] (cyclo([Bip(4'-COOH)][4Pal][Phe(4-COOH)]G[cisHyp][Trp(βS-Me,4-F)][Aib]SW[Aib][Ala(4-THP)]Q[Dab]G[dPro(4R-(4-pyridylmethyl))])) reads 0.029 nM. For `C[C@@H](c1c[nH]c2cccc(F)c12)[C@@H]1NC(=O)[C@@H]2C[C@H](O)CN2C(=O)CNC(=O)[C@H](Cc2ccc(C(=O)O)cc2)NC(=O)[C@H](Cc2ccncc2)NC(=O)[C@H](Cc2ccc(-c3ccc(C(=O)O)cc3)cc2)NC(=O)[C@H]2C[C@@H](Cc3ccncc3)CN2C(=O)CNC(=O)[C@H](CCN)NC(=O)[C@H](CCC(N)=O)NC(=O)[C@H](CC2CCOCC2)NC(=O)[C@@](C)(CO)NC(=O)[C@H](Cc2c[nH]c3ccccc23)NC(=O)[C@H](CO)NC(=O)C(C)(C)NC1=O` [Example 213] (cyclo([Bip(4'-COOH)][4Pal][Phe(4-COOH)]G[cisHyp][Trp(βS-Me,4-F)][Aib]SW[d(αMeS)][Ala(4-THP)]Q[Dab]G[dPro(4R-(4-pyridylmethyl))])) the value was 0.021 nM.
